Patent publication US4133826A, “Novel inversion process” (Roussel UCLAF, priority 1976, dated 1979)

Columns and labels:
[1] = test system: Spodoptera Littoralis larvae; experiment: Activity against Spodoptera Littoralis larvae (topical application); type: in vivo; details: for % dead after 24 h / % dead after 48 h: 1 μl acetone solution
Protocol: B. Activity against Spodoptera Littoralis larvae
This test was effected by topical application of 1 μl of an acetone solution of product A on the dorsal thorax of each larva and for each test, 15 caterpillers of Spodoptera Littoralis in the 4th larva stage were used. After treatment, the individuals were placed in an artificial nutritive media (Poitot medium) and the number of dead caterpillers was determined 24 and 48 hours after the treatment to determine the LD50 dose.

insects = experiment: Insecticidal activity (general statement); type: in vivo; details: in words
[2] = test system: domestic flies (houseflies); experiment: Activity against houseflies (topical application); type: in vivo, domestic flies of mixed sexes; details: for % dead after 24 hours: 1 μl acetone solution, dorsal thorax
Protocol: A. Activity against houseflies
The insecticidal tests were effected on domestic flies of mixed sexes by applying a topical solution of 1 μl of acetone solution of (S) α-cyano-3-phenoxybenzyl 2,2-dimethyl-3R-(2,2-dichlorovinyl)-cyclopropane-1R-carboxylate (product A) to the dorsal thorax of the flies. 50 flies were used for each test and the results were determined as the LD50, dose at which 50% of the flies were dead 24 hours after treatment.

In the case of `CC1(C)[C@H](C(=O)O[C@H](C#N)c2cccc(Oc3ccccc3)c2)[C@@H]1C=C(Cl)Cl` [product A, (S) α-cyano-3-phenoxybenzyl 2,2-dimethyl-3R-(2,2-dichlorovinyl)-cyclopropane-1R-carboxylate], the “% dead after 24 h” value ([1]; dose 0.1562 ng, topical, dorsal thorax, 4th larva stage) is reported as 20.5%, the “% dead after 48 h” value ([1]; dose 0.1562 ng, topical, dorsal thorax, 4th larva stage, 48 h) is reported as 27.3% and the “% dead after 24 h” value ([1]; dose 0.3125 ng, topical, dorsal thorax, 4th larva stage) is reported as 48.9%. For the same molecule, the “% dead after 48 h” value ([1]; dose 0.3125 ng, topical, dorsal thorax, 4th larva stage, 48 h) was 62.2%, the “% dead after 24 h” value ([1]; dose 0.625 ng, topical, dorsal thorax, 4th larva stage) was 80.0% and the “% dead after 48 h” value ([1]; dose 0.625 ng, topical, dorsal thorax, 4th larva stage, 48 h) was 82.2%. The “% dead after 24 h” value ([1]; dose 1.25 ng, topical, dorsal thorax, 4th larva stage) was 95.6%, the “% dead after 48 h” value ([1]; dose 1.25 ng, topical, dorsal thorax, 4th larva stage, 48 h) was 97.8% and the “effective against larvae of Spodoptera Littoralis” value ([1]; in words, experimental tests) was “effective”. For the same molecule, the “LD50 at 48 h” value ([1]; topical, dorsal thorax, 4th larva stage, 48 h) was 0.3 ng, the insecticidal activity (insects) was “excellent insecticidal activity” and the “% dead after 24 hours” value ([2]; dose 0.625 ng, topical) was 10.0%. For the same molecule, the “% dead after 24 hours” value ([2]; dose 1.25 ng, topical) was 34.5%, the “% dead after 24 hours” value ([2]; dose 2.5 ng, topical) was 68.0% and the “% dead after 24 hours” value ([2]; dose 3.75 ng, topical) was 83.2%. The “% dead after 24 hours” value ([2]; dose 5 ng, topical) was 93.3%, the LD50 ([2]; dose at which 50% of the flies were dead 24 hours after treatment, topical) was 1.6 ng and the “effective against domestic flies” value ([2]; in words, experimental tests) was “effective against domestic flies”. For the same molecule, the “insecticidal activity against houseflies” value ([2]; in words, from Table I) was “very high insecticidal activity”.
